Reference: patent US10689381B2 (priority 2017, dated 2020)
Like-named read-outs stand apart in the source and are kept apart here.

Columns and labels:
L1210 = assay: cells; assay type: cell-based, mouse
Experimental: (§1) A population of cells (>1×10^6 cells/mL as determined with a hemocytometer) was diluted with Dulbecco's Modified Eagle Medium (DMEM, Gibco) containing 10% fetal bovine serum (FBS, Gibco) to give a final concentration of 30,000 cells/mL. To each well of a 96-well plate (Corning® Costar®) was added 100 μL of the cell media solution with a multichannel pipet.
(§2) The test compounds were then added to the plate as follows: test compounds were diluted in DMSO to a concentration of 1 mM. 10-Fold serial dilutions in DMSO were next performed on a separate 96-well plate. Fresh culture media (100 μL) was added to each well of cells resulting in 200 μL of medium per well followed by 2 μL of each test agent. Compounds were tested in duplicate (n=2-8 times) at six concentrations between 0-1000 nM or 0-10000 nM. Following the addition of compound, cultures were incubated for an additional 72 hours.
(§3) The plates were incubated at 37° C. for 5 minutes (L1210) or 15 min (HCT116 and HCT116/VM46).

HCT116 = assay: cells; assay type: cell-based, human; conditions: for IC50: read-out: IC50 HCT116; for potency relative to vinblastine (more potent): vinblastine-sensitive cell lines
Experimental: as §1, §2, §3

Compound | IC50 (L1210; Table 1) [nM] | IC50 (HCT116; Table 1) [nM] | IC50 (L1210; Table 2) [nM] | IC50 (HCT116; Table 2) [nM] | other results
CCC1(NC(=O)C2CCc3ccccc3C2)CC2CN(CCc3c([nH]c4ccccc34)C(C(=O)OC)(c3cc4c(cc3OC)N(C)C3C(O)(C(=O)OC)C(OC(C)=O)C5(CC)C=CCN6CCC43C65)C2)C1 (mixture of isomers) [Compound 122] |  |  |  |  | IC50 (L1210; Table 4): 420 nM; IC50 (HCT116; Table 4): 580 nM
CCC(=O)NC1(CC)CC2CN(CCc3c([nH]c4ccccc34)C(C(=O)OC)(c3cc4c(cc3OC)N(C)C3C(O)(C(=O)OC)C(OC(C)=O)C5(CC)C=CCN6CCC43C65)C2)C1 (centres unmarked) [Compound 12] | 60 | 60 |  |  | 
CC[C@]1(NC(=O)C(C)C)C[C@H]2CN(CCc3c([nH]c4ccccc34)[C@@](C(=O)OC)(c3cc4c(cc3OC)N(C)[C@H]3[C@@](O)(C(=O)OC)[C@H](OC(C)=O)[C@]5(CC)C=CCN6CC[C@]43[C@@H]65)C2)C1 [Compound 13] | 70 | 90 |  |  | 
CC[C@]1(NC(=O)C(C)(C)C)C[C@H]2CN(CCc3c([nH]c4ccccc34)[C@@](C(=O)OC)(c3cc4c(cc3OC)N(C)[C@H]3[C@@](O)(C(=O)OC)[C@H](OC(C)=O)[C@]5(CC)C=CCN6CC[C@]43[C@@H]65)C2)C1 [Compound 14] | 2800 | 3600 |  |  | 
CCCCCC(=O)N[C@@]1(CC)C[C@H]2CN(CCc3c([nH]c4ccccc34)[C@@](C(=O)OC)(c3cc4c(cc3OC)N(C)[C@H]3[C@@](O)(C(=O)OC)[C@H](OC(C)=O)[C@]5(CC)C=CCN6CC[C@]43[C@@H]65)C2)C1 [Compound 15] | 55 | 40 |  |  | 
CCC1(NC(=O)C2CC2)CC2CN(CCc3c([nH]c4ccccc34)C(C(=O)OC)(c3cc4c(cc3OC)N(C)C3C(O)(C(=O)OC)C(OC(C)=O)C5(CC)C=CCN6CCC43C65)C2)C1 (centres unmarked) [Compound 17] | 5.5 | 6.1 |  |  | 
CC[C@]1(NC(=O)C2CCCC2)C[C@H]2CN(CCc3c([nH]c4ccccc34)[C@@](C(=O)OC)(c3cc4c(cc3OC)N(C)[C@H]3[C@@](O)(C(=O)OC)[C@H](OC(C)=O)[C@]5(CC)C=CCN6CC[C@]43[C@@H]65)C2)C1 [Compound 19] | 30 | 25 |  |  | 
CC[C@]1(NC(=O)C2CCCCC2)C[C@H]2CN(CCc3c([nH]c4ccccc34)[C@@](C(=O)OC)(c3cc4c(cc3OC)N(C)[C@H]3[C@@](O)(C(=O)OC)[C@H](OC(C)=O)[C@]5(CC)C=CCN6CC[C@]43[C@@H]65)C2)C1 [Compound 20] | 55 | 70 |  |  | 
CCC1(NC(=O)Cc2ccccc2)CC2CN(CCc3c([nH]c4ccccc34)C(C(=O)OC)(c3cc4c(cc3OC)N(C)C3C(O)(C(=O)OC)C(OC(C)=O)C5(CC)C=CCN6CCC43C65)C2)C1 (centres unmarked) [Compound 21] | 55 | 55 |  |  | 
CC[C@]1(NC(=O)C(c2ccccc2)c2ccccc2)C[C@H]2CN(CCc3c([nH]c4ccccc34)[C@@](C(=O)OC)(c3cc4c(cc3OC)N(C)[C@H]3[C@@](O)(C(=O)OC)[C@H](OC(C)=O)[C@]5(CC)C=CCN6CC[C@]43[C@@H]65)C2)C1 [Compound 22] | 760 | 3800 |  |  | 
C=CC(=O)N[C@@]1(CC)C[C@H]2CN(CCc3c([nH]c4ccccc34)[C@@](C(=O)OC)(c3cc4c(cc3OC)N(C)[C@H]3[C@@](O)(C(=O)OC)[C@H](OC(C)=O)[C@]5(CC)C=CCN6CC[C@]43[C@@H]65)C2)C1 [Compound 23] | 7 | 6 |  |  | IC50 (L1210; Table 3): 7 nM; IC50 (HCT116; Table 3): 6 nM
CCC1(NC(=O)c2ccc(C)cc2)CC2CN(CCc3c([nH]c4ccccc34)C(C(=O)OC)(c3cc4c(cc3OC)N(C)C3C(O)(C(=O)OC)C(OC(C)=O)C5(CC)C=CCN6CCC43C65)C2)C1 (centres unmarked) [Compound 25] |  |  | 0.5 | 0.45 | potency relative to vinblastine (more potent) (HCT116): 10 fold
CC[C@]1(NC(=O)c2cccc(C)c2)C[C@H]2CN(CCc3c([nH]c4ccccc34)[C@@](C(=O)OC)(c3cc4c(cc3OC)N(C)[C@H]3[C@@](O)(C(=O)OC)[C@H](OC(C)=O)[C@]5(CC)C=CCN6CC[C@]43[C@@H]65)C2)C1 [Compound 26] |  |  | 0.5 | 0.7 | potency relative to vinblastine (more potent) (HCT116): 10 fold
CC[C@]1(NC(=O)c2ccccc2C)C[C@H]2CN(CCc3c([nH]c4ccccc34)[C@@](C(=O)OC)(c3cc4c(cc3OC)N(C)[C@H]3[C@@](O)(C(=O)OC)[C@H](OC(C)=O)[C@]5(CC)C=CCN6CC[C@]43[C@@H]65)C2)C1 [Compound 27] |  |  | 55 | 50 | 
CC[C@]1(NC(=O)c2cc(C)cc(C)c2)C[C@H]2CN(CCc3c([nH]c4ccccc34)[C@@](C(=O)OC)(c3cc4c(cc3OC)N(C)[C@H]3[C@@](O)(C(=O)OC)[C@H](OC(C)=O)[C@]5(CC)C=CCN6CC[C@]43[C@@H]65)C2)C1 [Compound 29] |  |  | 5.4 | 6 | 
CCc1ccc(C(=O)NC2(CC)CC3CN(CCc4c([nH]c5ccccc45)C(C(=O)OC)(c4cc5c(cc4OC)N(C)C4C(O)(C(=O)OC)C(OC(C)=O)C6(CC)C=CCN7CCC54C76)C3)C2)cc1 (centres unmarked) [Compound 30] |  |  | 0.65 | 0.7 | potency relative to vinblastine (more potent) (HCT116): 10 fold
CCc1cc(CC)cc(C(=O)N[C@@]2(CC)C[C@H]3CN(CCc4c([nH]c5ccccc45)[C@@](C(=O)OC)(c4cc5c(cc4OC)N(C)[C@H]4[C@@](O)(C(=O)OC)[C@H](OC(C)=O)[C@]6(CC)C=CCN7CC[C@]54[C@@H]76)C3)C2)c1 [Compound 31] |  |  | 4.2 | 6.4 | 
CC[C@]1(NC(=O)c2ccc(C(C)C)cc2)C[C@H]2CN(CCc3c([nH]c4ccccc34)[C@@](C(=O)OC)(c3cc4c(cc3OC)N(C)[C@H]3[C@@](O)(C(=O)OC)[C@H](OC(C)=O)[C@]5(CC)C=CCN6CC[C@]43[C@@H]65)C2)C1 [Compound 32] |  |  | 5.4 | 6.4 | 
CCC1(NC(=O)c2cccc(C(C)C)c2)CC2CN(CCc3c([nH]c4ccccc34)C(C(=O)OC)(c3cc4c(cc3OC)N(C)C3C(O)(C(=O)OC)C(OC(C)=O)C5(CC)C=CCN6CCC43C65)C2)C1 (centres unmarked) [Compound 33] |  |  | 7.5 | 8.7 | 
CCCc1ccc(C(=O)NC2(CC)CC3CN(CCc4c([nH]c5ccccc45)C(C(=O)OC)(c4cc5c(cc4OC)N(C)C4C(O)(C(=O)OC)C(OC(C)=O)C6(CC)C=CCN7CCC54C76)C3)C2)cc1 (centres unmarked) [Compound 34] |  |  | 4.3 | 4.8 | 
CCCCc1ccc(C(=O)N[C@@]2(CC)C[C@H]3CN(CCc4c([nH]c5ccccc45)[C@@](C(=O)OC)(c4cc5c(cc4OC)N(C)[C@H]4[C@@](O)(C(=O)OC)[C@H](OC(C)=O)[C@]6(CC)C=CCN7CC[C@]54[C@@H]76)C3)C2)cc1 [Compound 35] |  |  | 30 | 20 | 
CC[C@]1(NC(=O)c2ccc(CC(C)C)cc2)C[C@H]2CN(CCc3c([nH]c4ccccc34)[C@@](C(=O)OC)(c3cc4c(cc3OC)N(C)[C@H]3[C@@](O)(C(=O)OC)[C@H](OC(C)=O)[C@]5(CC)C=CCN6CC[C@]43[C@@H]65)C2)C1 [Compound 36] |  |  | 25 | 10 | 
CCC(C)c1ccc(C(=O)N[C@@]2(CC)C[C@H]3CN(CCc4c([nH]c5ccccc45)[C@@](C(=O)OC)(c4cc5c(cc4OC)N(C)[C@H]4[C@@](O)(C(=O)OC)[C@H](OC(C)=O)[C@]6(CC)C=CCN7CC[C@]54[C@@H]76)C3)C2)cc1 (some centres unmarked) [Compound 37] |  |  | 25 | 15 | 
CC[C@]1(NC(=O)c2ccc(C(C)(C)C)cc2)C[C@H]2CN(CCc3c([nH]c4ccccc34)[C@@](C(=O)OC)(c3cc4c(cc3OC)N(C)[C@H]3[C@@](O)(C(=O)OC)[C@H](OC(C)=O)[C@]5(CC)C=CCN6CC[C@]43[C@@H]65)C2)C1 [Compound 38] |  |  | 0.6 | 1.9 | 
